Experimental data published in the METLIN SMRT retention time set (Domingo-Almenara et al. 2019).

Test: gradient 5% acetonitrile 3 min, to 50% in 2 min, to 85% in 15 min, held 3 min, 100 µL/min
Conditions: column: Zorbax Extend-C18 2.1 x 50 mm; eluents: water / acetonitrile, 0.1% formic acid
How it was run: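 Standards, all pure, were combined into mixtures of ~100 molecules and run at 100 μL/min on a Zorbax Extend-C18 column (2.1 × 50 mm, 1.8 μm) with water and acetonitrile, each containing 0.1% formic acid. A coupled quadrupole time-of-flight mass spectrometer operated in positive and negative ionization mode. Retention time values come from computationally picked adduct peaks, each inspected manually.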

| RP-LC retention time [s] | SMILES |
| --- | --- |
| 750 | Cc1ccccc1Nc1cc(C)n2c(=O)n(Cc3cccnc3)nc2n1 |
| 662 | C=CCNC(=O)Cc1nnc2cc(-c3nc(C4CC4)no3)ccn12 |
| 709 | Cc1oc(-c2[nH]ncc2C(=O)N2CCCC2)cc1S(=O)(=O)NCc1ccc(F)cc1 |
| 779 | CCn1nc(C)n2cc(S(=O)(=O)NCc3ccco3)cc2c1=O |
| 824 | Cc1ccc(CNC(=O)C2CCN(S(=O)(=O)c3ccc4c(c3)NC(=O)C(C)O4)CC2)cc1 (centres undefined) |
| 623 | CCOC(=O)N1CCN(C(=O)CSc2nnc3n2CCN3c2ccc(OC)cc2)CC1 |
| 735 | O=C(C1=NNc2ccccc2S1(=O)=O)N1CCCCCC1 |
| 764 | CC1=C(c2ccc(F)cc2)S(=O)(=O)N=C1N1CCCN(C(=O)c2ccco2)CC1 |
| 1030 | CC(C)Cn1cc(CCNS(=O)(=O)c2cccc(C(F)(F)F)c2)c2cccnc21 |
| 788 | O=[N+]([O-])c1ccccc1CSc1nnc2sc3ccccc3n12 |
| 845 | Cc1cccc(CNC(=O)CCc2nc3c(C)cccc3c(=O)n2C)c1 |
| 912 | CCn1cc(-c2nc(CC(=O)NCc3ccc(C)o3)cs2)c2cccnc21 |
| 848 | CCSc1ccccc1C(=O)NCc1nc(COc2ccc(OC)cc2)no1 |
| 1180 | Cc1cccc(NS(=O)(=O)c2c(C)sc(C)c2-c2cc(C(F)(F)F)on2)c1 |
| 768 | Cc1cc(F)ccc1NC(=O)c1csc(-c2ccc(N3CCCC3)nc2)n1 |
| 575 | Cn1cnc(S(=O)(=O)N2CC(n3cc(C(=O)N4CCOCC4)nn3)C2)c1 |
| 692 | Cc1ccc(CNC(=O)N2CCC(c3cc(N)on3)CC2)cc1 |
| 841 | CC(C)CCNC(=O)[C@H](CC(C)C)NC(=O)[C@H]1O[C@@H]1C(=O)O |
| 866 | Cc1ccc2nc(NC(=O)CSc3nnc(C4COc5ccccc5O4)o3)sc2c1 (centres undefined) |
| 590 | Cc1nnc2ccc(C(=O)NC(C)C)cn12 |
| 806 | O=S(=O)(c1cc(F)cc(F)c1)N1CCCC(Cn2c(C3CC3)nc3cccnc32)C1 (centres undefined) |
| 874 | Cc1nc(C(=O)NCc2ccc(F)cc2Cl)c(C)o1 |

| RP-LC retention time [s] | SMILES |
| --- | --- |
| 710 | Cc1nc(NS(=O)(=O)CCOc2ccc(F)cc2)sc1C |
| 573 | CCNC(=O)c1c2c(nc3ccccc13)CCC2 |
| 1000 | CCOc1ccc(C(=O)N2CCN(c3ccc(=O)n(-c4ccc(C(C)C)cc4)n3)CC2)cc1 |
| 667 | COCCCNC(=O)CC1CCN(C(=O)c2[nH]c(C)c(C)c2C)CC1 |
| 667 | Cc1ccc(C(C)NC(=O)c2cn3c(n2)COCC3)c(C)c1 (centres undefined) |
| 986 | O=C(NC1CCCCC1)c1ccc2ccnc(N3CCN(c4ccc(Cl)cc4)CC3)c2c1 |
| 858 | CCOc1cc(C(=O)NC2CCN(c3cc(-c4ccc(F)cc4)[nH]n3)C2)cc(OCC)c1OCC (centres undefined) |
| 740 | Cc1nc2nc(-c3ccccc3)nn2c(C)c1CC(=O)N(CCO)Cc1ccccc1 |
| 770 | CC(C)CCNC(=O)c1cc2n(n1)CC(C)(C(=O)NCc1ccc(F)cc1)N(C)C2=O (centres undefined) |
| 735 | Cc1nc2cc(N3CCCC(C(=O)NCc4cccc(F)c4)C3)cnc2nc1C (centres undefined) |
| 586 | N#CCCN1CCN(c2ccc(NC(=O)C3CCC3)c(C(=O)O)c2)CC1 |
| 1250 | Cc1cc(OCC(=O)Nc2nc(-c3ccccc3)cs2)cc(C)c1Cl |
| 665 | Cn1nccc1C(=O)N1CCCCC1c1nncn1Cc1ccccc1 (centres undefined) |
| 782 | CC1CCC(C(=O)Nc2cc3c(cc2N2CCOCC2)n(C)c(=O)c(=O)n3C)CC1 (centres undefined) |
| 770 | Cc1ccc(NC(=O)c2cnn3c2CCCC3)cc1 |
| 1010 | COc1ccc(-c2noc(C3CC(=O)N(c4cc(Cl)ccc4OC)C3)n2)c(OC)c1 (centres undefined) |
| 786 | COc1ccc(F)cc1S(=O)(=O)N1C[C@@H]2C[C@H]1C[C@@H]2NC(=O)c1ccccc1 |
| 919 | CCS(=O)(=O)N1CC(=O)N(c2cc(Cl)ccc2C)C(C)(C(=O)NCc2ccccc2)C1 (centres undefined) |
| 805 | COC(=O)c1c(C)[nH]c(C(=O)N2CCC(CC(=O)NC(c3cccs3)C(C)C)CC2)c1C (centres undefined) |
| 921 | O=C1CC(c2noc(-c3ccccc3)n2)CN1c1ccccc1 (centres undefined) |
| 758 | CCn1cnc2ccc(-c3noc(-c4ccccc4)n3)cc21 |
| 805 | CN(C)c1ccc(CNC(=O)c2cc(=O)n3c(nc4ccccc43)s2)cc1 |

| RP-LC retention time [s] | SMILES |
| --- | --- |
| 629 | Cc1nc2cc(NC(=O)c3cn(C)nn3)ccc2s1 |
| 768 | Cc1c(CC(=O)N2CCC(C(N)=O)CC2)c(=O)oc2cc3occ(-c4ccc(F)cc4)c3cc12 |
| 975 | CCN1C(=O)COc2ccc(-c3noc(CNC(=O)C(c4ccccc4)c4ccccc4)n3)cc21 |
| 943 | Cn1c2ccccc2c2cnn(CC(=O)N3CCN(c4ccccn4)CC3)c(=O)c21 |
| 607 | N#Cc1ccccc1CN1C[C@@H](CO)[C@H](c2nc(C3CC3)no2)C1 |
| 573 | C=CCN1CCN(c2ccc3nnc(CCc4nc(-c5ccccc5OC)no4)n3n2)CC1 |
| 589 | NC(=O)C1CCN(C(=O)c2ccc(F)cc2)CC1 |
| 591 | CC(C)COc1cc(=O)n2c(c1C(=O)N1CCN(c3ccccn3)CC1)CCCCC2 |
| 589 | C/C=C1/[C@H]2C=C(C)C[C@]1(N)c1ccc(=O)[nH]c1C2 |
| 1270 | Cc1ccc(-c2coc(-c3ccc(NC(=O)c4cccs4)cc3)n2)c(C)c1 |
| 718 | CCn1nc(CNC(=O)c2cnccn2)c2ccccc21 |
| 905 | CCN1CCCCc2cc(C(=O)NC(C)COC)sc21 (centres undefined) |
| 765 | CC1CCN(C(=O)c2cc3c(s2)CCC(C(=O)N2CCOCC2)C3)CC1 (centres undefined) |
| 911 | O=C(NC(c1nnc(-c2ccccc2)o1)c1ccccc1Cl)c1ccco1 (centres undefined) |
| 689 | Cc1cc(C)cc(NC(=O)Cc2cn(C)c3ncccc23)c1 |
| 862 | O=C(NC1CC1)c1ccc(OCC2CCCN(C(=O)c3ccc(F)c(Cl)c3)C2)cc1 (centres undefined) |
| 957 | O=C1N(c2ccccc2)CC12CCN(S(=O)(=O)c1ccccc1)CC2 |
| 831 | Cc1ccc(NC(=O)N2C[C@@H](F)C[C@H]2C(=O)N2CCc3ccccc3C2)c(Cl)c1 |
| 700 | CCOc1ccc(C2C(C(=O)OCCOC)=C(C)NC3=C2C(=O)CCC3)cc1OC (centres undefined) |
| 665 | Cc1ccccc1/C=C/C1=NCCN1 |
| 691 | CCc1ccc(C(=O)N2CCN(c3nnc4cccc(C)n34)CC2)cc1 |
| 628 | CCc1noc(NC(C)=O)c1-c1ccc(OC)c(S(=O)(=O)N2CCc3ccccc3C2)c1 |

| RP-LC retention time [s] | SMILES |
| --- | --- |
| 1130 | Cc1nn(CC(=O)N2CCC(C)CC2)c(=O)c2c(-n3cccc3)n(-c3ccc(Cl)cc3)nc12 |
| 1310 | COc1ccc(OC)c(C2CCN(C(=O)c3nc(-c4oc5c(C)cccc5c4C)no3)C2)c1 (centres undefined) |
| 635 | Cc1nc2cccnc2n1C1CCN(C(=O)Nc2ccccc2Cl)CC1 |
| 680 | O=C(NCc1ccccc1Cl)C1CCCN(C(=O)c2cc(-c3ccccn3)n[nH]2)C1 (centres undefined) |
| 539 | COC[C@@H]1CN(C(=O)c2ccoc2C)C[C@H]1c1nc(C)no1 |
| 814 | Cc1ccc(-n2cc3c(N4CCCC(C(=O)NC(C)c5ccc(C)cc5C)C4)ncnc3n2)cc1 (centres undefined) |
| 614 | O=C(NCc1cccs1)c1coc(NC(=O)C2CC2)n1 |
| 573 | CCc1cc(C(=O)N2CCN(c3ccccn3)CC2)nc2ccnn12 |
| 613 | COCCCNC(=O)N1CCCN(c2nc3cc(F)ccc3n3cccc23)CC1 |
| 767 | CCOc1ccc2nc(C(=O)Nc3ccc(N4CCOCC4)cc3)cn2n1 |
| 1050 | Cn1c(=O)n(CC(=O)N2CCCCC2)c(=O)c2cnc(-c3ccc(Cl)cc3)nc21 |
| 647 | CCCNC(=O)C1CCCN(c2ccc(SCC(=O)Nc3ccc(OC)cc3)nn2)C1 (centres undefined) |
| 1050 | O=C(Cn1cccc1-c1nnc(-c2ccccc2)o1)Nc1cccc(Cl)c1 |
| 622 | Cc1cccc(-n2ncc3c(N4CCN(CCO)CC4)ncnc32)c1 |
| 1120 | COc1ccc(N2CCN(C(=O)c3cc4c(-c5cccs5)nn(-c5ccccc5)c4n3C)CC2)cc1 |
| 706 | COc1ccc(-c2nc(NC3CC3)c3ccccc3n2)cc1 |
| 902 | O=C(CCc1ccccc1)NC1(c2nc(-c3ccncc3)no2)CCCCC1 |
| 840 | Cc1ccc(NC(=O)Cn2c(=O)n(-c3ccccc3)c3ncccc32)cc1 |
| 597 | Cc1[nH]c(C(=O)N2CCC(CC(=O)NCc3cccnc3)CC2)c(C)c1C(=O)OC(C)C |
| 816 | CCCN1C(=O)COc2ccc(-c3csc(NC(=O)c4ccncc4)n3)cc21 |
| 1310 | Cc1ccc(Sc2nccnc2N2CCCC(C(=O)N3CCN(c4cccc(C)c4)CC3)C2)cc1 (centres undefined) |
| 763 | CC(C)N1CCn2cc(S(=O)(=O)NCc3ccc(F)cc3F)cc2C1=O |

| SMILES | RP-LC retention time [s] |
| --- | --- |
| CCN(CC)C(=O)c1ccc2c(c1)N(CC(=O)NCc1ccc3c(c1)OCO3)C(=O)C1CCCCN21 (centres undefined) | 826 |
